Entries after “also recorded” stand apart in the source; their conditions may differ.
Legend:
[1] = active ingredient delivery in PhEur phosphate buffer of pH 6.8 in a USP dissolution tester (theophylline pellets); format: physicochemical; settings: substance in pellet core under EUDRAGIT RS coating
[2] = in vitro activity of modulating substances in purified water and phosphate buffer pH 6.8; format: physicochemical; settings: purified water vs phosphate buffer pH 6.8
Source text: In the human and animal gastrointestinal tract the concentration of ions may vary to a certain extent and thus may influence the activity of the modulating substances. For reproducible in-vivo results substances having a modulating effect, which are not or only a little influenced by varying ionic strength are preferred.

| SMILES | effect of the modulating substance on the rate of active ingredient delivery [1] | in vitro activity of the modulating substance in purified water compared with phosphate buffer pH 6.8 (Pharm. Eur.) [2] | effect of the modulating substance on the rate of active ingredient delivery ([1]; listed as Na acetate) | effect of the modulating substance on the rate of active ingredient delivery ([1]; listed as NaCl) | effect of the modulating substance on the rate of active ingredient delivery ([1]; listed as Na succinate) |
| --- | --- | --- | --- | --- | --- |
| O=C([O-])CC(O)(CC(=O)[O-])C(=O)[O-].[Na+].[Na+].[Na+] [Na citrate] | decrease the rate of active ingredient delivery | – | – | – | – |
| O=C(O)CC(O)(CC(=O)O)C(=O)O [citric acid] | accelerating effect; also recorded: increase the rate of active ingredient delivery | almost the same activity | – | – | – |
| CC(=O)[O-].[Na+] [sodium acetate] | accelerating effect | – | increase the rate of active ingredient delivery | – | – |
| [Cl-].[Na+] [sodium chloride] | reducing effect | almost the same activity | – | decrease the rate of active ingredient delivery | – |
| O=C([O-])CCC(=O)[O-].[Na+].[Na+] [sodium succinate] | accelerating effect | almost the same activity | – | – | increase the rate of active ingredient delivery |

— patent US20080220080A1, “Multiparticulate Pharmaceutical form Comprising Pellets with a Substance Having a Modular Effect in Relation to Active Ingredient Release” (RÖHM GMBH, priority 2005, published 2008)
